Laboratory results published in patent US11208381B2, “Indole derivatives and their use as protein kinase inhibitors” (RespiVert Limited, priority 2016, dated 2021).

Tests used:
PDGFRβ = PDGFRβ (Homo sapiens (Human), UniProt P09619); experiment: PDGFRβ enzyme inhibition (ADP-Glo assay); type: biochemical; settings: mean, n = 2 (nintedanib n = 34)
[1] = Pharmacokinetic measurements in rats, intra-tracheal dosing; type: in vivo; settings: rat; for Lung conc i.t./i.v. Ratio at time 0.1 h / Lung conc i.t./i.v. Ratio at time 1.5 h / Lung conc i.t./i.v. Ratio at time 6 h / Lung conc i.t./i.v. Ratio at time 24 h: i.t. versus i.v.; for concentration at 0.1 h: read-out: lung concentration (nM) at time 0.1 h; for concentration at 1.5 h: read-out: lung concentration (nM) at time 1.5 h; for concentration at 6 h: read-out: lung concentration (nM) at time 6 h; for concentration at 24 h: read-out: lung concentration (nM) at time 24 h; for Kp at 0.1 h / Kp at 1.5 h / Kp at 6 h / Kp at 24 h: lung/plasma; for Kp at 0.1 h: read-out: lung/plasma conc ratio at time 0.1 h; for Kp at 1.5 h: read-out: lung/plasma conc ratio at time 1.5 h; for Kp at 6 h: read-out: lung/plasma conc ratio at time 6 h; for Kp at 24 h: read-out: lung/plasma conc ratio at time 24 h
[2] = Pharmacokinetic measurements in rats, intravenous dosing; type: in vivo; settings: rat; for concentration at 0.1 h: read-out: lung concentration (nM) at time 0.1 h; for concentration at 1.5 h: read-out: lung concentration (nM) at time 1.5 h; for concentration at 6 h: read-out: lung concentration (nM) at time 6 h; for concentration at 24 h: read-out: lung concentration (nM) at time 24 h; for Kp at 0.1 h / Kp at 1.5 h / Kp at 6 h / Kp at 24 h: lung/plasma; for Kp at 0.1 h: read-out: lung/plasma ratio at time 0.1 h; for Kp at 1.5 h: read-out: lung/plasma ratio at time 1.5 h; for Kp at 6 h: read-out: lung/plasma ratio at time 6 h; for Kp at 24 h: read-out: lung/plasma ratio at time 24 h
PAMPA permeability assay = type: in vitro ADME; settings: PAMPA experimental recovery
[3] = male, CD, lung, other: intra-tracheal
[4] = male, CD, other: intra-tracheal

Chain of PDGFRβ (P09619 33-1106): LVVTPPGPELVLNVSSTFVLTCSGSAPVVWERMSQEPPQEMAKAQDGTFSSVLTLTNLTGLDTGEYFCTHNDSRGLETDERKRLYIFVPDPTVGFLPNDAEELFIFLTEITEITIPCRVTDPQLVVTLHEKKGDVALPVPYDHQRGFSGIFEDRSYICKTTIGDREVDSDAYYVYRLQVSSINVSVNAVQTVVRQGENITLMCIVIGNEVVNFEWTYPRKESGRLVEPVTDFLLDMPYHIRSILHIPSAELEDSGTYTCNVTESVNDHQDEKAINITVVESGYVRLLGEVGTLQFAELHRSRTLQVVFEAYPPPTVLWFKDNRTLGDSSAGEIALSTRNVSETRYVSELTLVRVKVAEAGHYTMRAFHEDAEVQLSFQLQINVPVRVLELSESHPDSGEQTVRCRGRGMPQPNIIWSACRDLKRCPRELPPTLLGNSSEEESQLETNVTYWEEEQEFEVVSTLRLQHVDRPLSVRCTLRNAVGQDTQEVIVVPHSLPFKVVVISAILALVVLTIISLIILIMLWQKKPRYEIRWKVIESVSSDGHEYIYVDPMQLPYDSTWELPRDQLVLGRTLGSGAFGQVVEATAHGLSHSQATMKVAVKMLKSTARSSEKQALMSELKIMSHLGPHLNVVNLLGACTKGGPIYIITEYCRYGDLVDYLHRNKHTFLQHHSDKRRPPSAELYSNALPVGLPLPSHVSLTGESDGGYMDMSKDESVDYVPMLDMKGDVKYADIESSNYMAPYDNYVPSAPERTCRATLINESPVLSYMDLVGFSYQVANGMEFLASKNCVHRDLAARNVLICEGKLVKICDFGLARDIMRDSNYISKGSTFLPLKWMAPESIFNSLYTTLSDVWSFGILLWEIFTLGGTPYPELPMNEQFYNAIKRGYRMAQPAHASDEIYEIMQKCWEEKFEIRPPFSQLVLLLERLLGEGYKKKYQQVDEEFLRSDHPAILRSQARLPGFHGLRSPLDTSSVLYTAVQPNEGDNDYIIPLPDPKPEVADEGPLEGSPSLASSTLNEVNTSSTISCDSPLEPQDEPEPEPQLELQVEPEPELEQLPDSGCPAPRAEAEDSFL

| SMILES | Ki (PDGFRβ) | Lung conc i.t./i.v. Ratio at time 0.1 h ([1]; 0.1 h) | Lung conc i.t./i.v. Ratio at time 1.5 h ([1]; 1.5 h) | Lung conc i.t./i.v. Ratio at time 6 h ([1]; 6 h) | Lung conc i.t./i.v. Ratio at time 24 h ([1]; 24 h) | concentration at 0.1 h [1, 3] | concentration at 1.5 h [1, 3] | concentration at 6 h [1, 3] | concentration at 24 h [1, 3] | Kp at 0.1 h [1, 4] | Kp at 1.5 h [1, 4] | Kp at 6 h [1, 4] | Kp at 24 h [1, 4] | concentration at 0.1 h ([2]; male, CD, lung, iv) | concentration at 1.5 h ([2]; male, CD, lung, iv) | Kp at 0.1 h ([2]; male, CD, iv) | Kp at 1.5 h ([2]; male, CD, iv) | further results |
| --- | --- | --- | --- | --- | --- | --- | --- | --- | --- | --- | --- | --- | --- | --- | --- | --- | --- | --- |
| COC(=O)c1cc2c(cc1C)/C(=C(/Nc1ccc(S(=O)(=O)NCCN3CCN(C)CC3)cc1)c1ccccc1)C(=O)N2 [Example 1, (Z)-Methyl 5-methyl-3-(((4-(N-(2-(4-methylpiperazin-1-yl)ethyl)sulfamoyl)phenyl)amino)(phenyl)methylene)-2-oxoindoline-6-carboxylate] | 9.93 nM | – | – | – | – | – | – | – | – | – | – | – | – | – | – | – | – | – |
| COC(=O)c1cc2c(cc1C)/C(=C(/Nc1ccc(C(=O)NCC3CCN(C)CC3)cc1)c1ccccc1)C(=O)N2 [Example 3, (Z)-Methyl 5-methyl-3-(((4-(((1-methylpiperidin-4-yl)methyl)carbamoyl)phenyl)amino)(phenyl)methylene)-2-oxoindoline-6-carboxylate] | – | 3 | 7 | 15 | 14 | – | – | – | – | – | – | – | – | – | – | – | – | – |
| COC(=O)c1cc2c(cc1C)/C(=C(/Nc1ccc(C(=O)NCCN3CCCN(C)CC3)cc1)c1ccccc1)C(=O)N2 [Example 5, (Z)-Methyl 5-methyl-3-(((4-((2-(4-methyl-1,4-diazepan-1-yl)ethyl)carbamoyl)phenyl)amino)(phenyl)methylene)-2-oxoindoline-6-carboxylate] | 12.9 nM | 7 | 12 | 2 | 7 | 5510 nM | 4020 nM | 1070 nM | 1670 nM | 371 | > 2280 | > 606 | > 951 | 765 nM | 330 nM | 127 | > 188 | concentration at 6 h ([2]; male, CD, lung, iv): 499 nM; concentration at 24 h ([2]; male, CD, lung, iv): 247 nM; Kp at 6 h ([2]; male, CD, iv): > 284; Kp at 24 h ([2]; male, CD, iv): > 140 |
| COC(=O)c1cc2c(cc1C)/C(=C(/Nc1ccc(C(=O)NCCN3CCC(N(C)C)CC3)cc1)c1ccccc1)C(=O)N2 [Example 6, (Z)-Methyl 3-(((4-((2-(4-(dimethylamino)piperidin-1-yl)ethyl)carbamoyl)phenyl)amino)(phenyl)methylene)-5-methyl-2-oxoindoline-6-carboxylate] | 10.3 nM | 9.8 | 8.0 | 8.3 | 7.7 | 9830 nM | 7570 nM | 7820 nM | 6440 nM | 472 | > 4450 | > 4600 | > 3790 | 1000 nM | 949 nM | 77 | > 558 | concentration at 6 h ([2]; male, CD, lung, iv): 939 nM; concentration at 24 h ([2]; male, CD, lung, iv): 837 nM; Kp at 6 h ([2]; male, CD, iv): > 552; Kp at 24 h ([2]; male, CD, iv): > 492 |
| COC(=O)c1cc2c(cc1C)/C(=C(/Nc1ccc(C(=O)NCC(=O)N3CCN(CCO)CC3)cc1)c1ccccc1)C(=O)N2 [Example 7, (Z)-Methyl 3-(((4-((2-(4-(2-hydroxyethyl)piperazin-1-yl)-2-oxoethyl)carbamoyl)phenyl)amino)(phenyl)methylene)-5-methyl-2-oxoindoline-6-carboxylate] | 5.76 nM | – | – | >42 | >10 | 1530 nM | 886 nM | 116 nM | 27 nM | 39 | > 265 | > 35 | > 8 | 99 nM | 44 nM | 2 | 12 | – |
| COC(=O)c1cc2c(cc1C)/C(=C(/Nc1ccc(C(=O)NCC(=O)N3CCN(C)CC3)cc1)c1ccccc1)C(=O)N2 [Example 8, (Z)-Methyl 5-methyl-3-(((4-((2-(4-methylpiperazin-1-yl)-2-oxoethyl)carbamoyl)phenyl)amino)(phenyl)methylene)-2-oxoindoline-6-carboxylate] | 8.12 nM | – | – | – | – | – | – | – | – | – | – | – | – | – | – | – | – | – |
| COC(=O)c1cc2c(cc1C)/C(=C(/Nc1ccc(C(=O)NCCN3CCNC(=O)C3)cc1)c1ccccc1)C(=O)N2 [Example 9, (Z)-Methyl 5-methyl-2-oxo-3-(((4-((2-(3-oxopiperazin-1-yl)ethyl)carbamoyl)phenyl)amino)(phenyl)methylene)indoline-6-carboxylate] | – | 12 | 51 | 45 | 21 | – | – | – | – | – | – | – | – | – | – | – | – | – |
| COC(=O)c1cc2c(cc1C)/C(=C(/Nc1ccc(C(=O)NCCN3CCC(O)CC3)cc1)c1ccccc1)C(=O)N2 [Example 12, (Z)-Methyl 3-(((4-((2-(4-hydroxypiperidin-1-yl)ethyl)carbamoyl)phenyl)amino)(phenyl)methylene)-5-methyl-2-oxoindoline-6-carboxylate] | 8.75 nM | – | – | – | – | – | – | – | – | – | – | – | – | – | – | – | – | – |
| COC(=O)c1cc2c(cc1C)/C(=C(/Nc1ccc(C(=O)NC3CCN(C)CC3)cc1)c1ccccc1)C(=O)N2 [Example 18, (Z)-Methyl-5-methyl-3-(((4-((1-methylpiperidin-4-yl)carbamoyl)phenyl)amino)(phenyl)methylene)-2-oxoindoline-6-carboxylate] | – | – | – | – | – | – | – | – | – | – | – | – | – | – | – | – | – | concentration at 0.1 h ([1]; i.t. dose 0.1 (nintedanib 0.42), 0.1 h): 6533 nM; concentration at 1.5 h ([1]; i.t. dose 0.1 (nintedanib 0.42), 1.5 h): 5987 nM; concentration at 6 h ([1]; i.t. dose 0.1 (nintedanib 0.42), 6 h): 2351 nM; concentration at 24 h ([1]; i.t. dose 0.1 (nintedanib 0.42), 24 h): 4523 nM; % Recovery (PAMPA permeability assay): 84.5%; t½ ([2]; i.v. dose 0.1 (nintedanib 0.42)): 5.1 h; concentration at 0.1 h ([2]; i.v. dose 0.1 (nintedanib 0.42), 0.1 h): 638 nM; concentration at 1.5 h ([2]; i.v. dose 0.1 (nintedanib 0.42), 1.5 h): 306 nM; concentration at 6 h ([2]; i.v. dose 0.1 (nintedanib 0.42), 6 h): 201 nM |
